According to US20250262201A1, “COMPOUNDS AND METHODS USEFUL FOR STABILIZING PHENYLALANINE HYDROXYLASE MUTATIONS” (Agios Pharmaceuticals, Inc., priority 2022, published 2025):

Target: T1, human PAH with the R408W mutation (Homo sapiens, UniProt P00439, R408W)
T1 construct: expressed in transfected cells
T1 sequence (P00439 1-452 R408W): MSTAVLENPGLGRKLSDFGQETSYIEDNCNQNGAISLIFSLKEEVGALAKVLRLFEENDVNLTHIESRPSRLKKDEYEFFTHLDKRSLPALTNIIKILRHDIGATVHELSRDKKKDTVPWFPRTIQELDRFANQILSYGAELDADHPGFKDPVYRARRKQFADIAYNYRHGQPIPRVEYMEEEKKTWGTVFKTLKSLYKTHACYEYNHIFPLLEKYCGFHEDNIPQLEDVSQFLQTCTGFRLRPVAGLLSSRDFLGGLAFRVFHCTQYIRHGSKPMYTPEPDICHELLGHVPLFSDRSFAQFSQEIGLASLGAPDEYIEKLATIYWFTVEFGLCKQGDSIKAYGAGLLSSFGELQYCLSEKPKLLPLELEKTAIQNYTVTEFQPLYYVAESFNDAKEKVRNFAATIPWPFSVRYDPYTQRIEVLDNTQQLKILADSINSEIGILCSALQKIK
Assay: Cell Based Phenylalanine Flux Assay
Set-up: scale not given here
Conditions: A375 R408W cells, 24 hrs with compound, then 20 μM sepiapterin and 800 μM 13C9,15N-Phenylalanine for 4 hours; 13C-Tyrosine by LC-MS; average where tested multiple times

SMILES	AC50
Cc1nnc(C(=O)N2CC(C)c3[nH]cnc3C2c2cc3ccccc3cn2)o1 [(4S, 7R) diastereomer of 3-[7-methyl-5-(5-methyl-1,3,4-oxadi]	E, E
CC(C)(O)c1nc(C(F)F)c(C(=O)N2CCc3[nH]cnc3C2c2ncc3ccccc3n2)o1 (stereo not drawn)	E, E

Further lines, results first:

AC50	SMILES
E, E	O=C(c1oc(-c2ccccn2)nc1C(F)(F)F)N1CCc2[nH]cnc2C1c1ncc2ccccc2n1 (stereo not drawn)
E, E	Cc1ocnc1CC(=O)N1CCc2[nH]cnc2C1c1cn2ccccc2n1 (stereo not drawn)

Same assay, conditions: A375 R408W cells, 24 hrs with compound, then 20 μM sepiapterin and 800 μM 13C9,15N-Phenylalanine for 4 hours; 13C-Tyrosine by LC-MS; average where tested multiple times; read-out: AC50

SMILES	AC50 [nM]
CC1CN(C(=O)c2nnc(-c3cnn(C)c3)o2)C(c2cc3ccccc3cn2)c2nc[nH]c21 (stereo not drawn)	1000 to 5000
Cc1nc(C(C)(C)S(C)(=O)=O)oc1C(=O)N1CCc2[nH]cnc2C1c1ccc2ccccc2n1 (stereo not drawn)	1000 to 5000
CC1CN(C(=O)c2nnc(N(C)C)o2)C(c2cc3ccccc3cn2)c2nc[nH]c21 (stereo not drawn)	1000 to 5000
COCCc1ccc2c(C(=O)N3CCc4[nH]cnc4C3c3ccc4ccccc4n3)cnn2c1 (stereo not drawn)	> 5000
Cc1nc(C2(O)CC2)oc1C(=O)N1CCc2[nH]cnc2C1c1ccc2ccccc2n1 (stereo not drawn)	1000 to 5000
O=C(CCc1cnco1)N1CCc2[nH]cnc2C1c1cn2ccccc2n1 (stereo not drawn)	1000 to 5000

The next lines start with the values.

AC50 [nM]	SMILES
> 5000	CC(C)(O)c1ccc2c(C(=O)N3CCc4[nH]cnc4C3c3cc4ccccc4cn3)cnn2c1 (stereo not drawn)
1000 to 5000	FC(F)(F)c1cnc(N2CCc3[nH]cnc3C2c2cc3ccccc3cn2)nc1 (stereo not drawn)
1000 to 5000	Cn1ccc(C(=O)N2CCc3[nH]cnc3C2c2ccc3ccccc3n2)n1 (stereo not drawn)
1000 to 5000	O=C(Cc1cscn1)N1CCc2[nH]cnc2C1c1cn2ccccc2n1 (stereo not drawn)
1000 to 5000	CC(C)(F)c1ccc2c(C(=O)N3CCc4[nH]cnc4C3c3ccc4ccccc4n3)cnn2c1 (stereo not drawn)

Same assay, conditions: A375 cells expressing human R408W PAH; 24 hrs compound incubation; 13C-Tyrosine by LC-MS; average where tested multiple times; read-out: AC50

SMILES	AC50 [nM]
Cc1nc([C@@H](C)O)oc1C(=O)N1CCc2[nH]cnc2C1c1ccc2ccccc2n1 (stereo in doubt) [Example 111, (2-((R)-1-hydroxyethyl)-4-methyloxazol-5-yl)((R)-4-(quinolin-2-yl)-6,7-dihydro-1H-imidazo[4,5-c]pyridin-5(4H)-yl)methanone]	500 to 1000
O=C(c1nnc(-c2cnn(CC(F)(F)F)c2)o1)N1CCc2[nH]cnc2[C@H]1c1ccc2ccccc2n1 (single isomer, unassigned) [Example 67]	500 to 1000
Cn1nccc1-c1nnc(C(=O)N2CCc3[nH]cnc3[C@H]2c2ncc3ccccc3n2)o1 [Example 203, (S)-(5-(1-methyl-1H-pyrazol-5-yl)-1,3,4-oxadiazol-2-yl)(4-(quinazolin-2-yl)-6,7-dihydro-1H-imidazo[4,5-c]pyridin-5(4H)-yl)methanone]	< 500
O=C(N1CCc2[nH]cnc2C1c1ccc2ccccc2n1)C(F)(F)C1(O)CCC1 (stereo in doubt) [Example 56, (S)-2,2-difluoro-2-(1-hydroxycyclobutyl)-1-(4-(quinolin-2-yl)-6,7-dihydro-1H-imidazo[4,5-c]pyridin-5(4H)-yl)ethanone]	1000 to 5000
CC(C)(C#N)c1nc(C(F)F)c(C(=O)N2CCc3[nH]cnc3C2c2ccc3ccccc3n2)o1 (stereo in doubt) [Example 128, (R)-2-(4-(difluoromethyl)-5-(4-(quinolin-2-yl)-4,5,6,7-tetrahydro-1H-imidazo[4,5-c]pyridine-5-carbonyl)oxazol-2-yl)-2-methylpropanenitrile]	< 500

Further lines, results first:

AC50 [nM]	SMILES
< 500	COc1ccc2c(C(=O)N3CCc4[nH]cnc4[C@H]3c3cc4ccccc4cn3)cnn2c1 [Example 460, (R)-(4-(isoquinolin-3-yl)-6,7-dihydro-1H-imidazo[4,5-c]pyridin-5(4H)-yl)(6-methoxypyrazolo[1,5-a]pyridin-3-yl)methanone]
1000 to 5000	O=C(c1nnc(-c2ncccc2F)o1)N1CCc2[nH]cnc2C1c1ccc2ccccc2n1 (stereo in doubt) [Example 90, (S)-(5-(3-fluoropyridin-2-yl)-1,3,4-oxadiazol-2-yl)(4-(quinolin-2-yl)-6,7-dihydro-1H-imidazo[4,5-c]pyridin-5(4H)-yl)methanone]
> 5000	O=C(CCc1nccs1)N1CCc2[nH]cnc2[C@@H]1c1ncc2ccccc2n1 [Example 274, (R)-1-(4-(quinazolin-2-yl)-6,7-dihydro-1H-imidazo[4,5-c]pyridin-5(4H)-yl)-3-(thiazol-2-yl)propan-1-one]
500 to 1000	O=C(c1nnc(-c2cn[nH]c2)o1)N1CCc2[nH]cnc2[C@H]1c1cc2ccccc2cn1 [Example 454, (R)-(5-(1H-pyrazol-4-yl)-1,3,4-oxadiazol-2-yl)(4-(isoquinolin-3-yl)-6,7-dihydro-1H-imidazo[4,5-c]pyridin-5(4H)-yl)methanone]
< 500	O=C(c1cnn2cc(-c3ccncn3)ccc12)N1CCc2[nH]cnc2[C@H]1c1cc2ccccc2cn1 [Example 476, (R)-(4-(isoquinolin-3-yl)-6,7-dihydro-1H-imidazo[4,5-c]pyridin-5(4H)-yl)(6-(pyrimidin-4-yl)pyrazolo[1,5-a]pyridin-3-yl)methanone]
< 500	O=C(c1nnc(-c2ccc(F)cn2)o1)N1CCc2[nH]cnc2[C@H]1c1cc2ccccc2cn1 [Example 340, (R)-(5-(5-fluoropyridin-2-yl)-1,3,4-oxadiazol-2-yl)(4-(isoquinolin-3-yl)-6,7-dihydro-1H-imidazo[4,5-c]pyridin-5(4H)-yl)methanone]
< 500	O=C(Cc1ccccn1)N1CCc2[nH]cnc2[C@H]1c1cc2ccccc2cn1 [Example 374, (R)-1-(4-(isoquinolin-3-yl)-6,7-dihydro-1H-imidazo[4,5-c]pyridin-5(4H)-yl)-2-(pyridin-2-yl)ethanone]
< 500	O=C(c1ncn2ccccc12)N1CCc2[nH]cnc2[C@H]1c1cc2ccccc2cn1 [Example 353, (R)-imidazo[1,5-a]pyridin-1-yl(4-(isoquinolin-3-yl)-6,7-dihydro-1H-imidazo[4,5-c]pyridin-5(4H)-yl)methanone]
> 5000	O=C(c1nnc(-c2ccccn2)o1)N1CCc2[nH]cnc2C1c1ccc2ccccc2n1 (stereo in doubt) [Example 46, (S)-(5-(pyridin-2-yl)-1,3,4-oxadiazol-2-yl)(4-(quinolin-2-yl)-6,7-dihydro-1H-imidazo[4,5-c]pyridin-5(4H)-yl)methanone]
500 to 1000	C[C@H]1CN(C(=O)c2oc(-c3ccccn3)nc2C2CC2)[C@@H](c2cc3ccccc3cn2)c2nc[nH]c21 [Example 408, (4-cyclopropyl-2-(pyridin-2-yl)oxazol-5-yl)((4S,7S)-4-(isoquinolin-3-yl)-7-methyl-6,7-dihydro-1H-imidazo[4,5-c]pyridin-5(4H)-yl)methanone]
< 500	O=C(Cc1cnn2ccccc12)N1CCc2[nH]cnc2[C@H]1c1cc2ccccc2cn1 [Example 375, (R)-1-(4-(isoquinolin-3-yl)-6,7-dihydro-1H-imidazo[4,5-c]pyridin-5(4H)-yl)-2-(pyrazolo[1,5-a]pyridin-3-yl)ethanone]
500 to 1000	O=C(c1cnn2cc(N3CCC(O)CC3)ccc12)N1CCc2[nH]cnc2[C@H]1c1cc2ccccc2cn1 [Example 478, (R)-(6-(4-hydroxypiperidin-1-yl)pyrazolo[1,5-a]pyridin-3-yl)(4-(isoquinolin-3-yl)-6,7-dihydro-1H-imidazo[4,5-c]pyridin-5(4H)-yl)methanone]
1000 to 5000	O=C(c1cnc(-c2ccccn2)s1)N1CCc2[nH]cnc2[C@H]1c1ccc2ccccc2c1 [Example 223, (R)-(4-(naphthalen-2-yl)-6,7-dihydro-1H-imidazo[4,5-c]pyridin-5(4H)-yl)(2-(pyridin-2-yl)thiazol-5-yl)methanone]
